Experimental data from PMC2949399, “Gene Expression Signature-Based Screening Identifies New Broadly Effective Influenza A Antivirals” (PLoS ONE, 2010).
Where two headings read alike, the source gives them in different places.

What was measured:
A/Turkey/582/2006 (H5N1) [1] = system: A/Turkey/582/2006 (H5N1)
[2] = system: A/Chicken/Italy/2076/99 (H7N1)
[3] = system: A/New Caledonia/20/99 (H1N1)
[4] = system: A/Finch/England/2051/94 (H5N2)
[5] = system: A/Lyon/969/09 (H1N1 SOIV)
[6] = system: A/Finch/England/2051/94 (H5N2); assay: microbe, parasite or virus in culture; settings: Influenza A virus, H5N2, A549, 65 h
A/Turkey/582/2006 (H5N1) [7] = assay: microbe, parasite or virus in culture; settings: Influenza A virus
[8] = system: A/Chicken/Italy/2076/99 (H7N1); assay: microbe, parasite or virus in culture; settings: Influenza A virus, H7N1, A549, in Gallus gallus, 65 h
influenza A viruses = type: cell-based, influenza A virus
[9] = system: A/Lyon/969/09 (H1N1 SOIV); assay: microbe, parasite or virus in culture; settings: Influenza A virus
[10] = system: A/New Caledonia/20/99 (H1N1); assay: microbe, parasite or virus in culture; settings: Influenza A virus
in vitro = settings: human
[11] = H5N1, A549, 65 h, read-out: EC50 H5N1 moi 0.2
[12] = H5N1, A549, 65 h, read-out: EC50 H5N1 moi 2
[13] = H1N1, A549, 65 h, read-out: EC50 SOIV moi 0.2
[14] = H1N1, A549, 65 h, read-out: EC50 SOIV moi 2
[15] = H1N1, A549, 65 h, read-out: EC50 H1N1 moi 0.2
[16] = H1N1, A549, 65 h, read-out: EC50 H1N1 moi 2

Row | Structure (SMILES) | SI = CC50/EC50, H1N1 SOIV [5] | EC50 ([6]; read-out: EC50 H5N2 moi 0.2) | EC50 ([6]; read-out: EC50 H5N2 moi 2) | EC50 (A/Turkey/582/2006 (H5N1) [7]; [11]) | EC50 (A/Turkey/582/2006 (H5N1) [7]; [12]) | EC50 ([8]; read-out: EC50 H7N1 moi 0.2) | EC50 ([8]; read-out: EC50 H7N1 moi 2) | Inhibitor class across the tested viruses (influenza A viruses) | EC50 [9, 13] | EC50 [9, 14] | EC50 [10, 15] | EC50 [10, 16] | CC50 (in vitro) | also measured
1 | Cc1nccc2c1[nH]c1cc(O)ccc12.Cl [Harmol, harmol hydrochloride] | 14 |  |  |  |  |  |  |  |  |  |  |  |  | EC50 (A/Turkey/582/2006 (H5N1) [1]; read-out: EC50 H5N1 moi 0.2): 43.4 µM; EC50 (A/Turkey/582/2006 (H5N1) [1]; read-out: EC50 H5N1 moi 2): 77.5 µM; CC50 (A549 cells): 95 µM; EC50 ([2]; read-out: EC50 H7N1 moi 0.2): 28 µM; EC50 ([2]; read-out: EC50 H7N1 moi 2): 49.4 µM; EC50 ([3]; read-out: EC50 H1N1 moi 0.2): 20.5 µM; EC50 ([3]; read-out: EC50 H1N1 moi 2): 60.4 µM; EC50 ([4]; read-out: EC50 H5N2 moi 0.2): 13.5 µM; EC50 ([4]; read-out: EC50 H5N2 moi 2): 4.06 µM; EC50 ([5]; read-out: EC50 SOIV moi 0.2): 6.76 µM; EC50 ([5]; read-out: EC50 SOIV moi 2): 53.7 µM
2 | CCN[C@H]1CN(CCCOC)S(=O)(=O)c2sc(S(N)(=O)=O)cc21 [Brinzolamide, brinzolamide] | 31 | 146 µM | 232 µM | > 500 µM | > 500 µM | 139 µM | 551 µM | weak to moderate inhibitors | 21.6 µM | 167 µM | 28.9 µM | 435 µM | 666 µM | Inhibitor class, H7N1 [2]: weak inhibitor; Inhibitor class / antiviral effect, H1N1 [3]: moderate inhibitor; Inhibitor class, H5N2 [4]: weak inhibitor
3 | CCCCCCCCNC(C)C(O)c1ccc(SC(C)C)cc1 (stereo not drawn) [Sulodictil] |  |  |  |  |  |  |  |  |  |  |  |  | 100 µM | 
4 | Nc1nc2c(c(=O)[nH]1)N(C=O)C(CNc1ccc(C(=O)N[C@@H](CCC(=O)O)C(=O)O)cc1)CN2 (stereo partly drawn) [Calcium Folinate, calcium folinate] |  | > 800 µM | > 800 µM | > 800 µM | > 800 µM | > 800 µM | > 800 µM | inefficient | > 2400 µM | > 2400 µM | > 800 µM | > 800 µM | > 2400 µM | Cytotoxicity at the highest tested dose (A549 cells): none of these molecules was cytotoxic at the highest tested dose
5 | CO[C@@]1(NC(=O)C(C(=O)O)c2ccc(O)cc2)C(=O)N2C(C(=O)O)=C(CSc3nnnn3C)CO[C@@H]21 (stereo partly drawn) [Latamoxef, moxalactam] |  |  |  |  |  |  |  |  |  |  |  |  | 593 µM | 
6 | C1COC(NC(C2CC2)C2CC2)=N1 [Rilmenidine] |  |  |  |  |  |  |  |  |  |  |  |  |  | EC50 (A/Turkey/582/2006 (H5N1) [1]; read-out: EC50 H5N1 moi 0.2): 1470 µM; EC50 (A/Turkey/582/2006 (H5N1) [1]; read-out: EC50 H5N1 moi 2): 2040 µM; CC50 (A549 cells): 1130 µM; EC50 ([2]; read-out: EC50 H7N1 moi 0.2): 778 µM; EC50 ([2]; read-out: EC50 H7N1 moi 2): 1050 µM; EC50 ([3]; read-out: EC50 H1N1 moi 0.2): 24.2 µM; EC50 ([3]; read-out: EC50 H1N1 moi 2): 506 µM; EC50 ([4]; read-out: EC50 H5N2 moi 0.2): 359 µM; EC50 ([4]; read-out: EC50 H5N2 moi 2): 514 µM; Inhibitor class / antiviral effect, H1N1 SOIV [5]: ineffective; EC50 ([5]; read-out: EC50 SOIV moi 0.2): 864 µM; EC50 ([5]; read-out: EC50 SOIV moi 2): 1070 µM
7 | C[S+](C)[O-] [DMSO, dimethylsulfoxide] |  |  |  |  |  |  |  |  |  |  |  |  |  | EC50 (A/Turkey/582/2006 (H5N1) [1]; read-out: EC50 H5N1 moi 0.2): 1830 µM; EC50 (A/Turkey/582/2006 (H5N1) [1]; read-out: EC50 H5N1 moi 2): > 1600 µM; EC50 ([2]; read-out: EC50 H7N1 moi 0.2): 801 µM; EC50 ([2]; read-out: EC50 H7N1 moi 2): 1110 µM; EC50 ([3]; read-out: EC50 H1N1 moi 0.2): 174 µM; EC50 ([3]; read-out: EC50 H1N1 moi 2): > 1600 µM; EC50 ([4]; read-out: EC50 H5N2 moi 0.2): 564 µM; EC50 ([4]; read-out: EC50 H5N2 moi 2): 734 µM; EC50 ([5]; read-out: EC50 SOIV moi 0.2): 344 µM; EC50 ([5]; read-out: EC50 SOIV moi 2): 606 µM
8 | NC(=O)c1ncn([C@@H]2O[C@H](CO)[C@@H](O)[C@H]2O)n1 [Ribavirin, ribavirin] | 482 | 6.71 µM | 16.4 µM | 48.4 µM | 632 µM | 12.5 µM | 32.4 µM | strong inhibitor | 61.1 µM | 292 µM | 6.63 µM | 73.8 µM | 29500 µM | SI = CC50/EC50, H5N1 (A/Turkey/582/2006 (H5N1) [1]): 911; EC50 (A/Turkey/582/2006 (H5N1) [7]; H5N1, A549, read-out: EC50 H5N1 moi 2): 632 µM; SI = CC50/EC50, H7N1 [2]: 1367; EC50 ([9]; H1N1, A549, read-out: EC50 SOIV moi 0.2): 61 µM; EC50 ([9]; H1N1, A549, read-out: EC50 SOIV moi 2): 292 µM; EC50 ([10]; H1N1, A549, read-out: EC50 H1N1 moi 0.2): 6 µM
9 | O=C(O)CNC(=O)C(CS)Cc1ccccc1 (racemic) [DL-Thiorphan] |  |  |  |  |  |  |  |  |  |  |  |  | 6280 µM | 
10 | CO[C@H]1/C=C\C=C(/C)C(=O)NC2=CC(=O)C(NCCN(C)C)=C(C[C@@H](C)C[C@H](OC)[C@H](O)[C@@H](C)/C=C(\C)[C@@H]1OC(N)=O)C2=O [alvespimycin, Alvespimycin] |  |  |  |  |  |  |  |  |  |  |  |  | > 10 µM | 
11 | COc1ccc(OC)c(C(O)CNC(=O)CN)c1 (stereo not drawn) [Midodrine, midodrine] | 40 | 476 µM | 1670 µM | 3900 µM | > 4250 µM | > 4250 µM | > 4250 µM | weak to moderate inhibitors | 109 µM | 930 µM | 29.8 µM | 1570 µM | > 4250 µM | SI = CC50/EC50, H5N1 (A/Turkey/582/2006 (H5N1) [1]): 1.09; Cytotoxicity at the highest tested dose (A549 cells): none of these molecules was cytotoxic at the highest tested dose
12 | Cc1cc(C(C)(C)CC(C)(C)C)ccc1OCCOCC[N+](C)(C)Cc1ccccc1 [Methylbenzethoniumchloride] |  |  |  |  |  |  |  |  |  |  |  |  |  | CC50 (A549 cells): 6.35 µM
13 | Nc1ccccc1S(N)(=O)=O [2-Aminobenzenesulfonamide, 2-aminobenzenesulfonamide] | 13 | > 690 µM | > 690 µM | > 690 µM | > 690 µM | > 690 µM | > 690 µM | inefficient | 534 µM | 1820 µM | > 690 µM | > 690 µM | > 6900 µM | Cytotoxicity at the highest tested dose (A549 cells): none of these molecules was cytotoxic at the highest tested dose
14 | O=C([O-])c1ccccc1-c1c2cc(Br)c(=O)cc-2oc2[c]([Hg+])c([O-])c(Br)cc12.[Na+].[Na+].[OH-] [Merbromin, merbromine] |  |  |  |  |  |  |  |  |  |  |  |  |  | EC50 (A/Turkey/582/2006 (H5N1) [1]; read-out: EC50 H5N1 moi 0.2): 46 µM; EC50 (A/Turkey/582/2006 (H5N1) [1]; read-out: EC50 H5N1 moi 2): 45 µM; CC50 (A549 cells): 104 µM; SI = CC50/EC50, H7N1 [2]: 2.4; EC50 ([2]; read-out: EC50 H7N1 moi 0.2): 46.7 µM; EC50 ([2]; read-out: EC50 H7N1 moi 2): 43.7 µM; EC50 (influenza A viruses; read-out: EC50 (all viruses tested)): ~50 µM; SI = CC50/EC50, H1N1 [3]: 2.01; EC50 ([3]; read-out: EC50 H1N1 moi 0.2): 62 µM; EC50 ([3]; read-out: EC50 H1N1 moi 2): 29.6 µM; SI = CC50/EC50, H5N2 [4]: 2.7; EC50 ([4]; read-out: EC50 H5N2 moi 0.2): 21.9 µM; EC50 ([4]; read-out: EC50 H5N2 moi 2): 36.5 µM; EC50 ([5]; read-out: EC50 SOIV moi 0.2): > 50 µM; EC50 ([5]; read-out: EC50 SOIV moi 2): 37.5 µM
15 | COc1cnc(NS(=O)(=O)c2ccc(N)cc2)nc1 [Sulfameter] |  |  |  |  |  |  |  |  |  |  |  |  | 4160 µM | 
